Data reported in PubChem BioAssay (NCI).
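Grown in 96-well plates, cells were treated for 48 hours with each compound at five concentrations. Insufficient inhibition: endpoint recorded as highest concentration tested. Definition used: TGI = concentration required for complete inhibition of growth.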

Key:
Assay in all cases: growth of human tumour cells (NCI), 48 h
RPMI-8226 leukemia = system: RPMI-8226 leukemia
K-562 leukemia = system: K-562 leukemia
HCC-2998 colon = system: HCC-2998 colon
COLO 205 colon = system: COLO 205 colon
OVCAR-8 ovarian = system: OVCAR-8 ovarian
UO-31 renal = system: UO-31 renal
RXF 393 renal = system: RXF 393 renal
OVCAR-5 ovarian = system: OVCAR-5 ovarian
BT-549 breast = system: BT-549 breast
MCF7 breast = system: MCF7 breast

Row | Structure (SMILES) | TGI (RPMI-8226 leukemia) [µM] | TGI (K-562 leukemia) [µM] | TGI (HCC-2998 colon) [µM] | TGI (COLO 205 colon) [µM] | TGI (OVCAR-8 ovarian) [µM] | TGI (UO-31 renal) [µM] | TGI (RXF 393 renal) [µM] | TGI (OVCAR-5 ovarian) [µM] | TGI (BT-549 breast) [µM] | TGI (MCF7 breast) [µM]
1 | COC(=O)CC(=O)OC1C[C@@H]2CCC3C(C)(C)CCC[C@]3(C)C23CC[C@@]1(C)C3 (stereo not given in full) | > 100 | > 100 | 35 | 33.9 | 36.8 | 39.8 | 37.2 | 29.6 |  | 
2 | COC(=O)c1sc2c(c1C(=O)OC)C(=Nc1ccc(OC)cc1)SC2=Nc1ccc(OC)cc1 |  |  | 3.17 | 1.31 | 2.32 | 2.11 | 1.72 | 3.55 | 3.43 | 2.47
3 | N#C/C(=C/c1ccc([N+](=O)[O-])o1)c1ccccc1 | > 100 | > 100 | > 100 | > 100 | > 100 | > 100 | > 100 | > 100 |  | 
4 | O=C1c2cccc3cc([N+](=O)[O-])cc(c23)C(=O)N1c1ccc(OCCN2CCCC2)cc1 |  |  | 33.5 | 38.3 | > 100 | 27.1 | 37 | 51.7 |  | 38.3
5 | CC(=O)N(C(=O)CC(=O)N1N=C(C)C(N=Nc2cccc([N+](=O)[O-])c2)C1=O)c1ccc(Cl)cc1 (stereo not given) | > 10 | > 10 | > 10 | > 10 | > 10 |  |  | > 10 | > 10 | > 10
6 | COC(=O)[C@@H]1CN(C(=O)Cc2ccccc2)C(=O)N1 | > 100 | > 100 |  | > 100 | > 100 | > 100 | > 100 | > 100 |  | 
7 | CC1(C)OCC(/C=C\C(O)CC2(C)OCCO2)CO1 (stereo not given) | > 100 | > 100 | > 100 | > 100 | > 100 | > 100 |  | > 100 | > 100 | > 100
8 | O=C1CCNC/C1=C\c1ccccc1 | 83.6 | > 100 | 42.8 | > 100 | 43.4 | 35.5 |  | 81.3 |  | 
9 | CNC(=O)OC1/C(C)=C\C(C)C(O)C(OC)CC(C)CC2=C(OC)C(=O)C=C(C2=O)N(C)C(=O)/C(C)=C/C=C\C1OC (stereo not given) | 13.2 | 12.5 | 21.4 | 7.9 | 21.1 | 31.7 | 17.9 | 22.7 | 18.5 | 
10 | CC(C)=CC(=O)c1[nH]c2ccccc2c1CC(=O)NCCc1cnc[nH]1 |  | > 100 | > 100 | > 100 | > 100 | > 100 | > 100 | > 100 | > 100 | > 100
11 | O=S(c1ccc(O)cc1)c1ccc(O)cc1 | > 100 | > 100 | > 100 | > 100 |  | > 100 | > 100 | > 100 |  | 
12 | Cc1ccc2c(c1)CC1(Cc3cc(C)ccc3C1=O)C2=O | > 100 | > 100 | > 100 |  | > 100 | > 100 | > 100 | > 100 |  | > 100
